Experimental data published in PubChem BioAssay (NCI).
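Values below derive from 48-hour exposures of cells grown in 96-well plates, with endpoints linearly interpolated between the two concentrations bracketing the appropriate inhibition level. GI50 = concentration required for 50% inhibition of growth. TGI denotes the concentration required for complete inhibition of growth.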

Experiments:
Assay in all cases: NCI tumour cell line growth inhibition, 48 h
786-0 renal = system: 786-0 renal
A498 renal = system: A498 renal
A549 NSCLC = system: A549 NSCLC
ACHN renal = system: ACHN renal
BT-549 breast = system: BT-549 breast
CAKI-1 renal = system: CAKI-1 renal
CCRF-CEM leukemia = system: CCRF-CEM leukemia
COLO 205 colon = system: COLO 205 colon
DU-145 prostate = system: DU-145 prostate
EKVX NSCLC = system: EKVX NSCLC
HCC-2998 colon = system: HCC-2998 colon
HCT-116 colon = system: HCT-116 colon
HCT-15 colon = system: HCT-15 colon
HL-60(TB) leukemia = system: HL-60(TB) leukemia
HOP-62 NSCLC = system: HOP-62 NSCLC
HOP-92 NSCLC = system: HOP-92 NSCLC
HS 578T breast = system: HS 578T breast
HT29 colon = system: HT29 colon
IGROV1 ovarian = system: IGROV1 ovarian
K-562 leukemia = system: K-562 leukemia
KM12 colon = system: KM12 colon
LOX IMVI melanoma = system: LOX IMVI melanoma
M14 melanoma = system: M14 melanoma
MALME-3M melanoma = system: MALME-3M melanoma
MCF7 breast = system: MCF7 breast
MDA-MB-231 breast = system: MDA-MB-231 breast
MDA-MB-435 = system: MDA-MB-435
MDA-MB-468 breast = system: MDA-MB-468 breast
MOLT-4 leukemia = system: MOLT-4 leukemia
NCI-H226 lung = system: NCI-H226 lung
NCI-H23 lung = system: NCI-H23 lung
NCI-H460 lung = system: NCI-H460 lung
NCI-H522 lung = system: NCI-H522 lung
NCI/ADR-RES ovarian = system: NCI/ADR-RES ovarian
OVCAR-3 ovarian = system: OVCAR-3 ovarian
OVCAR-4 ovarian = system: OVCAR-4 ovarian
OVCAR-5 ovarian = system: OVCAR-5 ovarian
OVCAR-8 ovarian = system: OVCAR-8 ovarian
PC-3 prostate = system: PC-3 prostate
RPMI-8226 leukemia = system: RPMI-8226 leukemia
RXF 393 renal = system: RXF 393 renal
SF-268 CNS = system: SF-268 CNS
SF-295 CNS = system: SF-295 CNS
SF-539 CNS = system: SF-539 CNS
SK-MEL-2 melanoma = system: SK-MEL-2 melanoma
SK-MEL-28 melanoma = system: SK-MEL-28 melanoma
SK-MEL-5 melanoma = system: SK-MEL-5 melanoma
SK-OV-3 ovarian = system: SK-OV-3 ovarian
SN12C renal = system: SN12C renal
SNB-19 CNS = system: SNB-19 CNS
SNB-75 CNS = system: SNB-75 CNS
SR leukemia = system: SR leukemia
SW-620 colon = system: SW-620 colon
T-47D breast = system: T-47D breast
TK-10 renal = system: TK-10 renal
U251 CNS = system: U251 CNS
UACC-257 melanoma = system: UACC-257 melanoma
UACC-62 melanoma = system: UACC-62 melanoma
UO-31 renal = system: UO-31 renal

Structure (SMILES): Cc1ccc(NC(=O)N/N=C/c2c[nH]c3ccccc23)c(C)c1
- GI50 (786-0 renal): 481 nM
- TGI (786-0 renal): 13900 nM
- GI50 (A498 renal): 12700 nM
- TGI (A498 renal): 38400 nM
- GI50 (A549 NSCLC): 588 nM
- TGI (A549 NSCLC): 45900 nM
- GI50 (ACHN renal): 637 nM
- TGI (ACHN renal): > 57600 nM
- GI50 (BT-549 breast): 596 nM
- TGI (BT-549 breast): 23900 nM
- GI50 (CAKI-1 renal): 261 nM
- TGI (CAKI-1 renal): > 44000 nM
- GI50 (CCRF-CEM leukemia): 308 nM
- TGI (CCRF-CEM leukemia): > 40000 nM
- GI50 (COLO 205 colon): 361 nM
- TGI (COLO 205 colon): 1590 nM
- GI50 (DU-145 prostate): 432 nM
- TGI (DU-145 prostate): 19400 nM
- GI50 (EKVX NSCLC): 469 nM
- TGI (EKVX NSCLC): > 100000 nM
- GI50 (HCC-2998 colon): 492 nM
- TGI (HCC-2998 colon): 4530 nM
- GI50 (HCT-116 colon): 245 nM
- TGI (HCT-116 colon): 4790 nM
- GI50 (HCT-15 colon): 78.5 nM
- TGI (HCT-15 colon): > 34900 nM
- GI50 (HL-60(TB) leukemia): 99.7 nM
- TGI (HL-60(TB) leukemia): 2730 nM
- GI50 (HOP-62 NSCLC): 343 nM
- TGI (HOP-62 NSCLC): 26200 nM
- GI50 (HOP-92 NSCLC): 1600 nM
- TGI (HOP-92 NSCLC): 19000 nM
- GI50 (HS 578T breast): 281 nM
- TGI (HS 578T breast): 23100 nM
- GI50 (HT29 colon): 164 nM
- TGI (HT29 colon): 1040 nM
- GI50 (IGROV1 ovarian): 378 nM
- TGI (IGROV1 ovarian): 20100 nM
- GI50 (K-562 leukemia): 41.8 nM
- TGI (K-562 leukemia): > 100000 nM
- GI50 (KM12 colon): 205 nM
- TGI (KM12 colon): 10100 nM
- GI50 (LOX IMVI melanoma): 365 nM
- TGI (LOX IMVI melanoma): 8330 nM
- GI50 (M14 melanoma): 175 nM
- TGI (M14 melanoma): 12800 nM
- GI50 (MALME-3M melanoma): 241 nM
- TGI (MALME-3M melanoma): 19100 nM
- GI50 (MCF7 breast): 235 nM
- TGI (MCF7 breast): 27900 nM
- GI50 (MDA-MB-231 breast): 495 nM
- TGI (MDA-MB-231 breast): 5410 nM
- GI50 (MDA-MB-435): 28.1 nM
- TGI (MDA-MB-435): 110 nM
- GI50 (MDA-MB-468 breast): 178 nM
- TGI (MDA-MB-468 breast): 543 nM
- GI50 (MOLT-4 leukemia): 269 nM
- TGI (MOLT-4 leukemia): > 32800 nM
- GI50 (NCI-H226 lung): 2500 nM
- TGI (NCI-H226 lung): > 100000 nM
- GI50 (NCI-H23 lung): 418 nM
- TGI (NCI-H23 lung): 12200 nM
- GI50 (NCI-H460 lung): 357 nM
- TGI (NCI-H460 lung): 15700 nM
- GI50 (NCI-H522 lung): 37.9 nM
- TGI (NCI-H522 lung): 327 nM
- GI50 (NCI/ADR-RES ovarian): 68.9 nM
- TGI (NCI/ADR-RES ovarian): 631 nM
- GI50 (OVCAR-3 ovarian): 138 nM
- TGI (OVCAR-3 ovarian): 1800 nM
- GI50 (OVCAR-4 ovarian): 5490 nM
- TGI (OVCAR-4 ovarian): > 100000 nM
- GI50 (OVCAR-5 ovarian): 565 nM
- TGI (OVCAR-5 ovarian): 15500 nM
- GI50 (OVCAR-8 ovarian): 378 nM
- TGI (OVCAR-8 ovarian): 3110 nM
- GI50 (PC-3 prostate): 517 nM
- TGI (PC-3 prostate): > 100000 nM
- GI50 (RPMI-8226 leukemia): 373 nM
- TGI (RPMI-8226 leukemia): 25600 nM
- GI50 (RXF 393 renal): 267 nM
- TGI (RXF 393 renal): 6230 nM
- GI50 (SF-268 CNS): 828 nM
- TGI (SF-268 CNS): 23400 nM
- GI50 (SF-295 CNS): 239 nM
- TGI (SF-295 CNS): 12000 nM
- GI50 (SF-539 CNS): 217 nM
- TGI (SF-539 CNS): 700 nM
- GI50 (SK-MEL-2 melanoma): 258 nM
- TGI (SK-MEL-2 melanoma): 627 nM
- GI50 (SK-MEL-28 melanoma): 1450 nM
- TGI (SK-MEL-28 melanoma): > 79300 nM
- GI50 (SK-MEL-5 melanoma): 226 nM
- TGI (SK-MEL-5 melanoma): 8130 nM
- GI50 (SK-OV-3 ovarian): 391 nM
- TGI (SK-OV-3 ovarian): 25300 nM
- GI50 (SN12C renal): 419 nM
- TGI (SN12C renal): 8970 nM
- GI50 (SNB-19 CNS): 554 nM
- TGI (SNB-19 CNS): 27200 nM
- GI50 (SNB-75 CNS): 343 nM
- TGI (SNB-75 CNS): 5600 nM
- GI50 (SR leukemia): 33.6 nM
- TGI (SR leukemia): > 21900 nM
- GI50 (SW-620 colon): 203 nM
- TGI (SW-620 colon): > 100000 nM
- GI50 (T-47D breast): 363 nM
- TGI (T-47D breast): 78000 nM
- GI50 (TK-10 renal): 2590 nM
- TGI (TK-10 renal): 39600 nM
- GI50 (U251 CNS): 316 nM
- TGI (U251 CNS): 12800 nM
- GI50 (UACC-257 melanoma): 573 nM
- TGI (UACC-257 melanoma): 47500 nM
- GI50 (UACC-62 melanoma): 151 nM
- TGI (UACC-62 melanoma): 5270 nM
- GI50 (UO-31 renal): 458 nM
- TGI (UO-31 renal): > 67000 nM
